In PubChem BioAssay (NCI):
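Five concentrations, 48 hours, 96-well plates. GI50: concentration for 50% inhibition of growth. Definition used: TGI = concentration required for complete inhibition of growth.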

How the values were obtained:
Assay in all cases: growth of human tumour cells (NCI), 48 h
786-0 renal = tested on: 786-0 renal
A498 renal = tested on: A498 renal
A549 NSCLC = tested on: A549 NSCLC
BT-549 breast = tested on: BT-549 breast
CAKI-1 renal = tested on: CAKI-1 renal
CCRF-CEM leukemia = tested on: CCRF-CEM leukemia
COLO 205 colon = tested on: COLO 205 colon
DU-145 prostate = tested on: DU-145 prostate
EKVX NSCLC = tested on: EKVX NSCLC
HCT-116 colon = tested on: HCT-116 colon
HL-60(TB) leukemia = tested on: HL-60(TB) leukemia
HOP-62 NSCLC = tested on: HOP-62 NSCLC
HS 578T breast = tested on: HS 578T breast
IGROV1 ovarian = tested on: IGROV1 ovarian
K-562 leukemia = tested on: K-562 leukemia
KM12 colon = tested on: KM12 colon
LOX IMVI melanoma = tested on: LOX IMVI melanoma
M14 melanoma = tested on: M14 melanoma
MALME-3M melanoma = tested on: MALME-3M melanoma
MCF7 breast = tested on: MCF7 breast
MDA-MB-231 breast = tested on: MDA-MB-231 breast
MDA-MB-435 = tested on: MDA-MB-435
MOLT-4 leukemia = tested on: MOLT-4 leukemia
NCI-H226 lung = tested on: NCI-H226 lung
NCI-H23 lung = tested on: NCI-H23 lung
NCI-H460 lung = tested on: NCI-H460 lung
NCI-H522 lung = tested on: NCI-H522 lung
NCI/ADR-RES ovarian = tested on: NCI/ADR-RES ovarian
OVCAR-3 ovarian = tested on: OVCAR-3 ovarian
OVCAR-4 ovarian = tested on: OVCAR-4 ovarian
OVCAR-5 ovarian = tested on: OVCAR-5 ovarian
OVCAR-8 ovarian = tested on: OVCAR-8 ovarian
PC-3 prostate = tested on: PC-3 prostate
RPMI-8226 leukemia = tested on: RPMI-8226 leukemia
RXF 393 renal = tested on: RXF 393 renal
SF-268 CNS = tested on: SF-268 CNS
SF-295 CNS = tested on: SF-295 CNS
SF-539 CNS = tested on: SF-539 CNS
SK-MEL-2 melanoma = tested on: SK-MEL-2 melanoma
SK-MEL-28 melanoma = tested on: SK-MEL-28 melanoma
SK-MEL-5 melanoma = tested on: SK-MEL-5 melanoma
SK-OV-3 ovarian = tested on: SK-OV-3 ovarian
SN12C renal = tested on: SN12C renal
SNB-19 CNS = tested on: SNB-19 CNS
SR leukemia = tested on: SR leukemia
SW-620 colon = tested on: SW-620 colon
T-47D breast = tested on: T-47D breast
TK-10 renal = tested on: TK-10 renal
U251 CNS = tested on: U251 CNS
UACC-257 melanoma = tested on: UACC-257 melanoma
UACC-62 melanoma = tested on: UACC-62 melanoma
UO-31 renal = tested on: UO-31 renal

COCCN(CCOC)c1nc(-c2ccccc2)nc2ccccc12 showed a GI50 (786-0 renal) of 25.6 µM, a TGI (786-0 renal) greater than 100 µM and a GI50 (A498 renal) of 30.1 µM. It also gave a TGI (A498 renal) of 89.7 µM, a GI50 (A549 NSCLC) of 30.1 µM and a TGI (A549 NSCLC) greater than 100 µM. It also gave a GI50 (BT-549 breast) of 22.5 µM, a TGI (BT-549 breast) of 47.7 µM and a GI50 (CAKI-1 renal) of 23.2 µM. It also gave a TGI (CAKI-1 renal) of 73.2 µM, a GI50 (CCRF-CEM leukemia) of 4.23 µM and a TGI (CCRF-CEM leukemia) greater than 100 µM. For the same compound, the GI50 (COLO 205 colon) was 28.2 µM, the TGI (COLO 205 colon) was greater than 100 µM and the GI50 (DU-145 prostate) was 36.9 µM. The TGI (DU-145 prostate) was greater than 100 µM, the GI50 (EKVX NSCLC) was 38.8 µM and the TGI (EKVX NSCLC) was greater than 100 µM. For the same compound, the GI50 (HCT-116 colon) was 24.5 µM, the TGI (HCT-116 colon) was greater than 100 µM and the GI50 (HL-60(TB) leukemia) was 30.3 µM. It also gave a TGI (HL-60(TB) leukemia) greater than 100 µM, a GI50 (HOP-62 NSCLC) of 22.4 µM and a TGI (HOP-62 NSCLC) of 64.3 µM. The GI50 (HS 578T breast) was 38.8 µM, the TGI (HS 578T breast) was greater than 100 µM and the GI50 (IGROV1 ovarian) was 25.2 µM. It also gave a TGI (IGROV1 ovarian) of 93.6 µM, a GI50 (K-562 leukemia) of 36.1 µM and a TGI (K-562 leukemia) greater than 100 µM. The GI50 (KM12 colon) was 18.6 µM, the TGI (KM12 colon) was 47.2 µM and the GI50 (LOX IMVI melanoma) was 34.7 µM. It also gave a TGI (LOX IMVI melanoma) greater than 100 µM, a GI50 (M14 melanoma) of 13.9 µM and a TGI (M14 melanoma) of 56.6 µM. The GI50 (MALME-3M melanoma) was 20.2 µM, the TGI (MALME-3M melanoma) was 39.9 µM and the GI50 (MCF7 breast) was 20.6 µM. It also gave a TGI (MCF7 breast) of 55.7 µM, a GI50 (MDA-MB-231 breast) of 59.4 µM and a TGI (MDA-MB-231 breast) greater than 100 µM. For the same compound, the GI50 (MDA-MB-435) was 21.9 µM, the TGI (MDA-MB-435) was 55.8 µM and the GI50 (MOLT-4 leukemia) was 28.3 µM. The TGI (MOLT-4 leukemia) was greater than 100 µM, the GI50 (NCI-H226 lung) was 23.6 µM and the TGI (NCI-H226 lung) was 54 µM. The GI50 (NCI-H23 lung) was 26.6 µM, the TGI (NCI-H23 lung) was 54.7 µM and the GI50 (NCI-H460 lung) was 20.8 µM. The TGI (NCI-H460 lung) was 79.2 µM, the GI50 (NCI-H522 lung) was 21.6 µM and the TGI (NCI-H522 lung) was 52.7 µM. The GI50 (NCI/ADR-RES ovarian) was 21.3 µM, the TGI (NCI/ADR-RES ovarian) was 61.2 µM and the GI50 (OVCAR-3 ovarian) was 31.3 µM. For the same compound, the TGI (OVCAR-3 ovarian) was greater than 100 µM, the GI50 (OVCAR-4 ovarian) was 44.8 µM and the TGI (OVCAR-4 ovarian) was greater than 100 µM. The GI50 (OVCAR-5 ovarian) was 21.9 µM, the TGI (OVCAR-5 ovarian) was 46.3 µM and the GI50 (OVCAR-8 ovarian) was 33.7 µM. The TGI (OVCAR-8 ovarian) was greater than 100 µM, the GI50 (PC-3 prostate) was 15.1 µM and the TGI (PC-3 prostate) was 43.7 µM. It also gave a GI50 (RPMI-8226 leukemia) of 7.03 µM, a TGI (RPMI-8226 leukemia) of 36 µM and a GI50 (RXF 393 renal) of 34.6 µM. The TGI (RXF 393 renal) was greater than 100 µM, the GI50 (SF-268 CNS) was 19.7 µM and the TGI (SF-268 CNS) was 62.4 µM. The GI50 (SF-295 CNS) was 30.9 µM, the TGI (SF-295 CNS) was greater than 100 µM and the GI50 (SF-539 CNS) was 24.3 µM. For the same compound, the TGI (SF-539 CNS) was 52.9 µM, the GI50 (SK-MEL-2 melanoma) was 19.2 µM and the TGI (SK-MEL-2 melanoma) was 44.6 µM. It also gave a GI50 (SK-MEL-28 melanoma) of 29.2 µM, a TGI (SK-MEL-28 melanoma) greater than 100 µM and a GI50 (SK-MEL-5 melanoma) of 15.8 µM. The TGI (SK-MEL-5 melanoma) was 32.9 µM, the GI50 (SK-OV-3 ovarian) was 31.9 µM and the TGI (SK-OV-3 ovarian) was greater than 100 µM. The GI50 (SN12C renal) was 29.1 µM, the TGI (SN12C renal) was greater than 100 µM and the GI50 (SNB-19 CNS) was 40.9 µM. For the same compound, the TGI (SNB-19 CNS) was greater than 100 µM, the GI50 (SR leukemia) was 34.4 µM and the TGI (SR leukemia) was greater than 100 µM. The GI50 (SW-620 colon) was 33.9 µM, the TGI (SW-620 colon) was greater than 100 µM and the GI50 (T-47D breast) was 26.9 µM. The TGI (T-47D breast) was greater than 100 µM, the GI50 (TK-10 renal) was 30.7 µM and the TGI (TK-10 renal) was 78.4 µM. The GI50 (U251 CNS) was 70.1 µM, the TGI (U251 CNS) was greater than 100 µM and the GI50 (UACC-257 melanoma) was 17.7 µM. For the same compound, the TGI (UACC-257 melanoma) was 36.6 µM, the GI50 (UACC-62 melanoma) was 18.2 µM and the TGI (UACC-62 melanoma) was 34.9 µM. It also gave a GI50 (UO-31 renal) of 28.1 µM and a TGI (UO-31 renal) greater than 100 µM.
